The target of assay [1] is T1, Cbl-b (Homo sapiens, UniProt Q13191). Kind of assay: Cbl-b activity assay (Cbl-b inhibition assay), TR-FRET of Cbl-b interaction with UbcH5B-Ub. Type of assay: biochemical. The note with it: assay buffer with 100 mM NaCl, 60 nM Src kinase; read-out: Cbl-b activity IC50. The gist of the method:
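UbcH5B (C85K) conjugated to N-terminally Bodipy-Fluorescein-labeled ubiquitin served as the fluorescent partner. After compound preincubation, Src kinase (60 nM) with 1 mM ATP and 5 mM MgCl2 (final) was added for 1.5 h, followed by a further 1 h incubation. Some values were obtained with 50 mM NaCl and 30 nM Src.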

In assay [2] the test system is T-cell. Kind of assay: IL-2 secretion from T-cells co-stimulated with anti-CD3 and anti-CD28 antibody (Biological Example 2). Type of assay: cell-based, human. To be noted: Homo sapiens, T-cell; for fold induction at 4 µM: 4 μM compound. The gist of the method:
(§1)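 T-cells were stimulated with anti-CD3 antibody alone or with anti-CD28 antibody, in the presence or absence of Cbl-b inhibitor. IL-2 secretion or CD25 surface staining was measured, and values expressed as fold over the uninhibited baseline […].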

Assay [3] has as its target T1, Cbl-b. Kind of assay: Cbl-b inhibition assay (Cbl-b activity assay, FRET, Biological Example 1; 100 mM NaCl, 60 nM Src kinase). Format: biochemical. The note with it: upper bound stated in text lists; read-out: IC50 values in the Cbl-b inhibition assay of Biological Example 1. The gist of the method:
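TR-FRET assay using N-terminal biotinylated Avi-tagged Cbl-b bound to streptavidin-terbium, Src kinase for Cbl-b phosphorylation, and UbcH5B irreversibly conjugated to Bodipy-Fluorescein-ubiquitin. Phosphorylated Cbl-b binds UbcH5B-Ub, bringing the fluorophores together; inhibition is read as loss of FRET signal.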

Assay [4] relates to T-cell. Kind of assay: CD25 cell surface staining on T-cells co-stimulated with anti-CD3 and anti-CD28 antibody (Biological Example 2). Type of assay: cell-based, human. The note with it: Homo sapiens, T-cell; for fold induction at 4 µM: 4 μM compound. In outline: as §1
Setting [5] is: read-out: IL-2 secretion, Anti-CD3/Anti-CD28 stimulation, fold change over baseline.
[6] abbreviates: read-out: CD25 staining, Anti-CD3/Anti-CD28 stimulation, fold change over baseline.
Setting [7] is: 0.3 μM compound, primary human total T-cells, baseline = anti-CD3/anti-CD28 stimulated cells without inhibitor, read-out: IL-2 secretion, Anti-CD3/Anti-CD28 stimulation, fold change over baseline.
Where [8] appears, read: 1 μM compound, primary human total T-cells, baseline = anti-CD3/anti-CD28 stimulated cells without inhibitor, read-out: IL-2 secretion, Anti-CD3/Anti-CD28 stimulation, fold change over baseline.
[9] abbreviates: primary human total T-cells, baseline = anti-CD3/anti-CD28 stimulated cells without inhibitor, read-out: IL-2 secretion, Anti-CD3/Anti-CD28 stimulation, fold change over baseline.
[10] abbreviates: 0.3 μM compound, primary human total T-cells, baseline = anti-CD3/anti-CD28 stimulated cells without inhibitor, read-out: CD25 staining, Anti-CD3/Anti-CD28 stimulation, fold change over baseline.
The mark [11] stands for this setting: 1 μM compound, primary human total T-cells, baseline = anti-CD3/anti-CD28 stimulated cells without inhibitor, read-out: CD25 staining, Anti-CD3/Anti-CD28 stimulation, fold change over baseline.
Setting [12] is: primary human total T-cells, baseline = anti-CD3/anti-CD28 stimulated cells without inhibitor, read-out: CD25 staining, Anti-CD3/Anti-CD28 stimulation, fold change over baseline.

The values that follow come from patent publication US20220324835A1 (Nurix Therapeutics, Inc., priority 2018, published 2022).

Some results are limits rather than exact numbers.

T1 sequence (Q13191 36-427): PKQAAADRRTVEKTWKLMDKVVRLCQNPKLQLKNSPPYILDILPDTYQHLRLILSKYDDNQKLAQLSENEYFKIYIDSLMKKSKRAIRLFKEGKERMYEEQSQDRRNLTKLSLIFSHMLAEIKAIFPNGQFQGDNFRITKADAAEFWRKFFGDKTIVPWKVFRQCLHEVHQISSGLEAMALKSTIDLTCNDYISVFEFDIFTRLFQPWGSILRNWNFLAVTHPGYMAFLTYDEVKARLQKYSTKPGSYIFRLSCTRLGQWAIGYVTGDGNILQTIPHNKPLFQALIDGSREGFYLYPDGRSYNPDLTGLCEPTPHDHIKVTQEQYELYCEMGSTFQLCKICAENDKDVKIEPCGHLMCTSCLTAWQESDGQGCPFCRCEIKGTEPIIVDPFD

`C[C@H](c1cc2c(c(C(F)(F)F)c1)CN(c1cccc(C3([C@H](F)c4nncn4C)COC3)c1)C2=O)N1CCC2(CC2)C1` (stereo in doubt) [Example 575, 6-((R)-1-(5-Azaspiro[2.4]heptan-5-yl)ethyl)-2-(3-(3-((S)-fluoro(4-methyl-4H-1,2,4-triazol-3-yl)methyl)oxetan-3-yl)phenyl)-4-(trifluoromethyl)isoindolin-1-one]: the IC50 was less than 100 nM at Cbl-b [1] and no more than 100 nM on Cbl-b [3]. Also, the fold induction at 0.3 µM with T-cell [2] (0.3 μM Cbl-b inhibitor, fold change over baseline (anti-CD3/anti-CD28 stimulated T-cells without inhibitor), read-out: IL-2 secretion Anti-CD3/Anti-CD28 stimulation) was greater than 7.5; in the assay on T-cell [4] (0.3 μM Cbl-b inhibitor, fold change over baseline (anti-CD3/anti-CD28 stimulated T-cells without inhibitor), read-out: CD25 staining Anti-CD3/Anti-CD28 stimulation) it was 1.31 to 1.5. The fold induction at 1 µM in the assay on T-cell [2] (1 μM Cbl-b inhibitor, fold change over baseline (anti-CD3/anti-CD28 stimulated T-cells without inhibitor), read-out: IL-2 secretion Anti-CD3/Anti-CD28 stimulation) was greater than 7.5; with T-cell [4] (1 μM Cbl-b inhibitor, fold change over baseline (anti-CD3/anti-CD28 stimulated T-cells without inhibitor), read-out: CD25 staining Anti-CD3/Anti-CD28 stimulation), 1.31 to 1.5.

As to `CN1CC2CCC(C1)N2c1cc2c(c(C(F)(F)F)c1)CN(c1cccc(C3(Cc4nncn4C)COC3)c1)C2=O` [Compound 386, 2-(3-(3-((4-Methyl-4H-1,2,4-triazol-3-yl)methyl)oxetan-3-yl)phenyl)-6-(3-methyl-3,8-diazabicyclo[3.2.1]octan-8-yl)-4-(trifluoromethyl)isoindolin-1-one], the IC50 at Cbl-b [1] is less than 100 nM; at Cbl-b [3], no more than 100 nM. For the same compound, the fold induction at 0.3 µM in the assay with T-cell [2] (setting [5]) was greater than 7.5; in the assay with T-cell [4] (setting [6]), 1.31 to 1.5. Further, the fold induction at 1 µM with T-cell [2] (setting [5]) is greater than 7.5; with T-cell [4] (setting [6]) it was 1.31 to 1.5.

Consider `Cn1cnnc1CC1(c2cccc(N3Cc4c(cc(CN5CC[C@H](F)C5)cc4C(F)(F)F)C3=O)c2)COC1` [Compound 410, 6-{[(3S)-3-fluoropyrrolidin-1-yl]methyl}-2-(3-{3-[(4-methyl-4H-1,2,4-triazol-3-yl)methyl]oxetan-3-yl}phenyl)-4-(trifluoromethyl)-2,3-dihydro-1H-isoindol-1-one], for which the IC50 at Cbl-b [1] was less than 100 nM; on Cbl-b [3], no more than 100 nM. For the same compound, the fold induction at 0.3 µM in the assay on T-cell [2] (setting [7]) was 5 to 7.5; with T-cell [4] (setting [10]), 1.31 to 1.5. Moreover, the fold induction at 1 µM with T-cell [2] (setting [8]) was greater than 7.5; in the assay with T-cell [4] (setting [11]), 1.51 to 1.75. Besides, the fold induction at 4 µM was greater than 7.5 in the assay with T-cell [2] (setting [9]) and 1.51 to 1.75 with T-cell [4] (setting [12]).

With `C[C@@H](c1cc2c(c(C(F)(F)F)c1)CN(c1cccc(C3(Cc4nncn4C)COC3)c1)C2=O)N1CC[C@H](F)C1` [Compound 412, 6-((S)-1-((S)-3-fluoropyrrolidin-1-yl)ethyl)-2-(3-(3-((4-methyl-4H-1,2,4-triazol-3-yl)methyl)oxetan-3-yl)phenyl)-4-(trifluoromethyl)isoindolin-1-one], the IC50 at Cbl-b [1] was less than 100 nM; on Cbl-b [3], no more than 100 nM. For the same compound, the fold induction at 0.3 µM with T-cell [2] (setting [7]) was greater than 7.5; in the assay with T-cell [4] (setting [10]) it was 1.31 to 1.5. Further, the fold induction at 1 µM in the assay with T-cell [2] (setting [8]) is greater than 7.5; in the assay with T-cell [4] (setting [11]) it was 1.51 to 1.75. The fold induction at 4 µM in the assay with T-cell [2] (setting [9]) was greater than 7.5; in the assay on T-cell [4] (setting [12]), 1.51 to 1.75.

On to `C[C@H](c1cc2c(c(C(F)(F)F)c1)CN(c1cccc(C3(Cc4nncn4C)COC3)c1)C2=O)N1CC[C@H](F)C1` [Compound 413, 6-((R)-1-((S)-3-fluoropyrrolidin-1-yl)ethyl)-2-(3-(3-((4-methyl-4H-1,2,4-triazol-3-yl)methyl)oxetan-3-yl)phenyl)-4-(trifluoromethyl)isoindolin-1-one], for which the IC50 on Cbl-b [1] was less than 100 nM; at Cbl-b [3], no more than 100 nM. Also, the fold induction at 0.3 µM lay within 5 to 7.5 in the assay on T-cell [2] (setting [7]) and 1.31 to 1.5 in the assay on T-cell [4] (setting [10]). The fold induction at 1 µM in the assay on T-cell [2] (setting [8]) was greater than 7.5; in the assay with T-cell [4] (setting [11]), 1.51 to 1.75. Further, the fold induction at 4 µM was greater than 7.5 with T-cell [2] (setting [9]) and 1.31 to 1.5 in the assay with T-cell [4] (setting [12]).

With `Cn1cnnc1CC1(c2cccc(N3Cc4c(cc(CN5CC(F)C5)cc4C(F)(F)F)C3=O)c2)COC1` [Compound 415, 6-((3-fluoroazetidin-1-yl)methyl)-2-(3-(3-((4-methyl-4H-1,2,4-triazol-3-yl)methyl)oxetan-3-yl)phenyl)-4-(trifluoromethyl)isoindolin-1-one], the IC50 on Cbl-b [1] was less than 100 nM; at Cbl-b [3], no more than 100 nM. In addition, the fold induction at 0.3 µM fell in the range of 5 to 7.5 with T-cell [2] (setting [7]) and 1.31 to 1.5 in the assay with T-cell [4] (setting [10]). Further, the results for the fold induction at 1 µM in the assay on T-cell [2] (setting [8]) and in the assay on T-cell [4] (setting [11]) were greater than 7.5 and 1.31 to 1.5, respectively. Besides, the fold induction at 4 µM in the assay on T-cell [2] (setting [9]) was greater than 7.5; with T-cell [4] (setting [12]), 1.51 to 1.75.

Take `Cn1cnnc1CC1(c2cccc(N3Cc4c(cc(CN5CC[C@@H](C#N)C5)cc4C(F)(F)F)C3=O)c2)COC1` [Compound 421, (R)-1-((2-(3-(3-((4-methyl-4H-1,2,4-triazol-3-yl)methyl)oxetan-3-yl)phenyl)-3-oxo-7-(trifluoromethyl)isoindolin-5-yl)methyl)pyrrolidine-3-carbonitrile]: the IC50 at Cbl-b [1] was less than 100 nM; at Cbl-b [3], no more than 100 nM. The fold induction at 0.3 µM in the assay on T-cell [2] (setting [7]) is 5 to 7.5; in the assay on T-cell [4] (setting [10]), 1.01 to 1.3. The fold induction at 1 µM in the assay with T-cell [2] (setting [8]) is greater than 7.5; with T-cell [4] (setting [11]) it was 1.01 to 1.3. The fold induction at 4 µM is greater than 7.5 with T-cell [2] (setting [9]) and 1.31 to 1.5 in the assay with T-cell [4] (setting [12]).

Regarding `Cn1cnnc1CC1(c2cccc(N3Cc4c(cc(CN5CC[C@H](C#N)C5)cc4C(F)(F)F)C3=O)c2)COC1` [Compound 422, (S)-1-((2-(3-(3-((4-methyl-4H-1,2,4-triazol-3-yl)methyl)oxetan-3-yl)phenyl)-3-oxo-7-(trifluoromethyl)isoindolin-5-yl)methyl)pyrrolidine-3-carbonitrile], the IC50 was less than 100 nM at Cbl-b [1] and no more than 100 nM on Cbl-b [3]. The fold induction at 0.3 µM in the assay on T-cell [2] (setting [7]) was 5 to 7.5; with T-cell [4] (setting [10]), 1.31 to 1.5. Moreover, the fold induction at 1 µM in the assay on T-cell [2] (setting [8]) is greater than 7.5; with T-cell [4] (setting [11]), 1.31 to 1.5. In addition, the values for the fold induction at 4 µM with T-cell [2] (setting [9]) and in the assay with T-cell [4] (setting [12]) were greater than 7.5 and 1.31 to 1.5, respectively.

Regarding `Cn1cnnc1CC1(c2cccc(N3Cc4c(cc(CN5C[C@H]6C[C@H]6C5)cc4C(F)(F)F)C3=O)c2)COC1` [Compound 429, 6-(((1R,5S)-3-azabicyclo[3.1.0]hexan-3-yl)methyl)-2-(3-(3-((4-methyl-4H-1,2,4-triazol-3-yl)methyl)oxetan-3-yl)phenyl)-4-(trifluoromethyl)isoindolin-1-one], the IC50 on Cbl-b [1] was less than 100 nM; on Cbl-b [3] it was no more than 100 nM. Moreover, the fold induction at 0.3 µM is greater than 7.5 with T-cell [2] (setting [7]) and 1.31 to 1.5 in the assay on T-cell [4] (setting [10]). In addition, the results for the fold induction at 1 µM with T-cell [2] (setting [8]) and in the assay on T-cell [4] (setting [11]) were greater than 7.5 and 1.31 to 1.5, respectively. For the same compound, the fold induction at 4 µM in the assay on T-cell [2] (setting [9]) is greater than 7.5; in the assay on T-cell [4] (setting [12]), 1.51 to 1.75.

As for `Cn1cnnc1CC1(c2cccc(N3Cc4c(cc(CN5CCC[C@H](F)C5)cc4C(F)(F)F)C3=O)c2)COC1` [Compound 432, 6-{[(3S)-3-fluoropiperidin-1-yl]methyl}-2-(3-{3-[(4-methyl-4H-1,2,4-triazol-3-yl)methyl]oxetan-3-yl}phenyl)-4-(trifluoromethyl)-2,3-dihydro-1H-isoindol-1-one], the IC50 on Cbl-b [1] is less than 100 nM; at Cbl-b [3], no more than 100 nM. Also, the fold induction at 0.3 µM is greater than 7.5 with T-cell [2] (setting [7]) and 1.31 to 1.5 with T-cell [4] (setting [10]). The fold induction at 1 µM with T-cell [2] (setting [8]) is greater than 7.5; in the assay with T-cell [4] (setting [11]), 1.31 to 1.5.

Take `Cn1cnnc1C(F)(F)[C@](C)(F)c1cccc(N2Cc3c(cc(N4CCNCC4)cc3C(F)(F)F)C2=O)c1` [Compound 442, (R)-6-(Piperazin-1-yl)-2-(3-(1,1,2-trifluoro-1-(4-methyl-4H-1,2,4-triazol-3-yl)propan-2-yl)phenyl)-4-(trifluoromethyl)isoindolin-1-one]: the IC50 on Cbl-b [1] was less than 100 nM; on Cbl-b [3] it was no more than 100 nM. Moreover, the fold induction at 0.3 µM in the assay on T-cell [2] (setting [7]) was 2.51 to 5; with T-cell [4] (setting [10]) it was 1.31 to 1.5. For the same compound, the results for the fold induction at 1 µM in the assay with T-cell [2] (setting [8]) and in the assay on T-cell [4] (setting [11]) were greater than 7.5 and 1.51 to 1.75, respectively. The fold induction at 4 µM is greater than 7.5 with T-cell [2] (setting [9]) and 1.51 to 1.75 in the assay on T-cell [4] (setting [12]).
